Where two headings read alike, the source gives them in different places.
Assays:
[1] = cited from earlier work
[2] = test system: Cryptosporidium parvum; conditions: 1.5x10^6 parasites, 5.0 mg Orlistat per gram dry matter
From the text: Error bars represent standard deviations. […] Error bars represent standard deviations.

[3] = test system: HCT-8 cells; experiment: Cytotoxicity in MTS/PMS assay on HCT-8 cells; format: cell-based; conditions: HCT-8 cultures, 48 hrs
Experimental: Cells were passaged in maintenance medium at 37°C in a 6% CO2/94% humidified air incubator.
Cytotoxicity of Orlistat was tested in an MTS/PMS assay (Hommer et al., 2003). Orlistat stock solution and DMSO solvent (control) were diluted in culture medium and serial dilutions were applied to HCT-8 cultures for 48 hrs.

[4] = test system: Cryptosporidium parvum; experiment: In vitro inhibition of the development of Cryptosporidium parvum in HCT-8 cells (cell culture-based enzyme-immune assay)
Experimental: In a cell culture-based enzyme-immune assay increasing concentrations of Orlistat (1 - 15 µM) diluted in culture medium were tested for the inhibition of the development of Cryptosporidium parvum. The parasites were allowed to develop in HCT-8 cells for 48 hrs. The optical readings were converted into parasite growth relative to mean of the controls [%]. […] Orlistat (# 04139, Sigma, Deisenhofen, Germany) was dissolved in DMSO at 10 mM (stock solution). […] Cells were passaged in maintenance medium at 37°C in a 6% CO2/94% humidified air incubator. HCT-8 cells were seeded in 96-well culture plates and infected with Cryptosporidium parvum oocysts (IOWA strain) as described (Hommer et al., 2003). At 2 hrs post infection (p.i.) non-invaded parasites were removed by washing. Orlistat diluted in culture medium or medium alone (negative control) were added. After a total of 48 hrs p.i. culture plates were washed with PBS and fixed with methanol for 15 min. Intracellular stages of Cryptosporidium parvum were detected by an enzyme-immune assay using a monoclonal antibody (McDonald et al., 1995) as described previously (Hommer et al., 2003). Experiments were performed in six-fold replica. Optical density (OD) readings were corrected by the OD of non-infected HCT-8 cells. The means of the infected controls without Orlistat were taken as 100% growth rate. […]

[5] = within the physiological pH range; cited from earlier work

CCCCCCCCCCC[C@@H](C[C@@H]1OC(=O)[C@H]1CCCCCC)OC(=O)[C@H](CC(C)C)NC=O [Orlistat]
solubility in chloroform ([1]; chloroform): freely soluble
solubility in methanol and ethanol ([1]; methanol and ethanol): very soluble
solubility in water ([1]; water): practically insoluble
reduction of total parasite excretion by a factor ([2]; interferon-gamma deficient mice, p < 0.0006): 125
reduction of total parasite excretion by a factor ([2]; interleukin-12 deficient mice, p < 0.008): over 80
cytotoxic effect on HCT-8 cells detected at concentrations [3]: > 20 µM
inhibition at 15 µM ([4]; Cryptosporidium parvum, 15 µM, 48 hrs p.i., HCT-8 host cells, compared to the infected but untreated controls, read-out: inhibition rate): > 90%
reduction of parasite development in the HCT-8 host cells ([4]; all Orlistat concentrations (1 - 15 µM), p < 0.0002): concentration dependent, statistically significant reduction
pKa [5]: no pKa within the physiological pH range

Reference: patent EP2392327A1, “Use of orlistat for the anti-parasitic treatment of a parasitic disease” (Universitätsmedizin der Johannes Gutenberg-Universität Mainz, priority 2010, dated 2011)
